# From publication PMC12686049 (2025)
# How the values were obtained:
# [1] = tested on: A1-G (DNA, G4) CCGGGAGGAATCATGTAAGGGGTCCCGGGAACGGGCAAGGGGCTTTTCACC; experiment: CD titration at 295 nm, Hill fit; conditions: 100 mM KCl; 10 mM sodium cacodylate, pH 7.0, 25 °C; 10 µM DNA; apparent, half-maximal ellipticity change; Hill coefficient 2.1 ± 0.9
# [2] = tested on: A2-G (DNA, G4) GGGTGGGGGTGATAAACGGGGCATCAGGGACACATTGCTGGGTCGGGTCGT; experiment: CD titration at 295 nm, Hill fit; conditions: 100 mM KCl; 10 mM sodium cacodylate, pH 7.0, 25 °C; 10 µM DNA; apparent, half-maximal ellipticity change; Hill coefficient 2.8 ± 1.5
# [3] = tested on: pkaC1 (DNA, G4) GGGTTGTGGTGGGTGGAGGGATGGGG; experiment: thioflavin T fluorescence; conditions: 100 mM KCl; 10 mM sodium cacodylate, pH 7.4; 4 µM DNA, 1 µM dye; background without DNA 1154
# [4] = tested on: atrF (DNA, G4) GGGTATTTGTTTGGGGGGATGGG; experiment: thioflavin T fluorescence; conditions: 100 mM KCl; 10 mM sodium cacodylate, pH 7.4; 4 µM DNA, 1 µM dye; background without DNA 1154
# [5] = tested on: skn7 (DNA, single strand) GGGGGGGGGGTGGG; experiment: thioflavin T fluorescence; conditions: 100 mM KCl; 10 mM sodium cacodylate, pH 7.4; 4 µM DNA, 1 µM dye; background without DNA 1154
# [6] = tested on: chsG (DNA, G4) GGAGAGCGGGAGGTGGTGAGGG; experiment: thioflavin T fluorescence; conditions: 100 mM KCl; 10 mM sodium cacodylate, pH 7.4; 4 µM DNA, 1 µM dye; background without DNA 1154
# [7] = tested on: erg1 (DNA, G4) GGGCGACGGGGAAGAGGTAGGGAGGG; experiment: thioflavin T fluorescence; conditions: 100 mM KCl; 10 mM sodium cacodylate, pH 7.4; 4 µM DNA, 1 µM dye; background without DNA 1154
# [8] = tested on: yap1 (DNA, G4) GGGATGGGCTTCCCAAGTCGGGGAGAGGG; experiment: thioflavin T fluorescence; conditions: 100 mM KCl; 10 mM sodium cacodylate, pH 7.4; 4 µM DNA, 1 µM dye; background without DNA 1154
# [9] = tested on: atrR (DNA, G4) GGGGGAGGGTGCGGGATGCTCTTCGGG; experiment: thioflavin T fluorescence; conditions: 100 mM KCl; 10 mM sodium cacodylate, pH 7.4; 4 µM DNA, 1 µM dye; background without DNA 1154
# [10] = tested on: rodA (DNA, G4) GGGGTAGGGAACAGGGTCCCGGG; experiment: thioflavin T fluorescence; conditions: 100 mM KCl; 10 mM sodium cacodylate, pH 7.4; 4 µM DNA, 1 µM dye; background without DNA 1154
# [11] = tested on: ftmC (DNA, G4) GGGTCTGGAGCGCGGGGTTCGGGGATCGGG; experiment: thioflavin T fluorescence; conditions: 100 mM KCl; 10 mM sodium cacodylate, pH 7.4; 4 µM DNA, 1 µM dye; background without DNA 1154
# [12] = tested on: ftmE (DNA, G4) GGGAGTGGGGATGGCGACGGGGAGCAGGG; experiment: thioflavin T fluorescence; conditions: 100 mM KCl; 10 mM sodium cacodylate, pH 7.4; 4 µM DNA, 1 µM dye; background without DNA 1154
# [13] = tested on: gliN (DNA, G4) GGGGGGCGCTTGGCTGGGAAGGCGGTTGGG; experiment: thioflavin T fluorescence; conditions: 100 mM KCl; 10 mM sodium cacodylate, pH 7.4; 4 µM DNA, 1 µM dye; background without DNA 1154
# [14] = tested on: zafA (DNA, G4) GGGCAGGGCAGAGCAGGGCAGGGG; experiment: thioflavin T fluorescence; conditions: 100 mM KCl; 10 mM sodium cacodylate, pH 7.4; 4 µM DNA, 1 µM dye; background without DNA 1154
# [15] = tested on: abcB (DNA, G4) GGGGGTGGGCGTTGGGGCGGG; experiment: thioflavin T fluorescence; conditions: 100 mM KCl; 10 mM sodium cacodylate, pH 7.4; 4 µM DNA, 1 µM dye; background without DNA 1154
# [16] = tested on: Telomere (DNA, G4) TTAGGGTTAGGGTTAGGGTTAGGGTT; experiment: thioflavin T fluorescence; conditions: 100 mM KCl; 10 mM sodium cacodylate, pH 7.4; 4 µM DNA, 1 µM dye; background without DNA 1154
# [17] = tested on: aspf2 (DNA, G4) GGGGACGGGGGAGGTAGGGAGGG; experiment: thioflavin T fluorescence; conditions: 100 mM KCl; 10 mM sodium cacodylate, pH 7.4; 4 µM DNA, 1 µM dye; background without DNA 1154
# [18] = tested on: B DNA (DNA, single strand) GGCGCTATTCTCTGGTGCTGCT; experiment: thioflavin T fluorescence; conditions: 100 mM KCl; 10 mM sodium cacodylate, pH 7.4; 4 µM DNA, 1 µM dye; background without DNA 1154
# [19] = tested on: cyp51A (DNA, G4) GGGTGGGGGTGATAAACGGGGCATCAGGG; experiment: thioflavin T fluorescence; conditions: 100 mM KCl; 10 mM sodium cacodylate, pH 7.4; 4 µM DNA, 1 µM dye; background without DNA 1154
# [20] = tested on: aspf28 (DNA, G4) GGGTTGCGAGGGAAGGAGGGGCGGG; experiment: thioflavin T fluorescence; conditions: 100 mM KCl; 10 mM sodium cacodylate, pH 7.4; 4 µM DNA, 1 µM dye; background without DNA 1154
# [21] = tested on: cyp51B (DNA, G4) GGGGTAGGGGGGCCCAGGG; experiment: thioflavin T fluorescence; conditions: 100 mM KCl; 10 mM sodium cacodylate, pH 7.4; 4 µM DNA, 1 µM dye; background without DNA 1154
# [22] = tested on: ste7 (DNA, G4) GGGAGGGACACAAAGAGGGGATAAGGAGGG; experiment: thioflavin T fluorescence; conditions: 100 mM KCl; 10 mM sodium cacodylate, pH 7.4; 4 µM DNA, 1 µM dye; background without DNA 1154
# [23] = tested on: hscA (DNA, G4) GGGGCTGAATTGGGGGGGAAAACGAGACGGG; experiment: thioflavin T fluorescence; conditions: 100 mM KCl; 10 mM sodium cacodylate, pH 7.4; 4 µM DNA, 1 µM dye; background without DNA 1154
# [24] = tested on: fks1 (DNA, G4) GGAAGGGGCTCGGGCATGGG; experiment: thioflavin T fluorescence; conditions: 100 mM KCl; 10 mM sodium cacodylate, pH 7.4; 4 µM DNA, 1 µM dye; background without DNA 1154
# [25] = tested on: bck1 (DNA, G4) GGGCCTGGAGGGGGGCCCGGGG; experiment: thioflavin T fluorescence; conditions: 100 mM KCl; 10 mM sodium cacodylate, pH 7.4; 4 µM DNA, 1 µM dye; background without DNA 1154
# [26] = tested on: erg5 (DNA, G4) GGGATTAGGGTATGCCTCAGGGTCATGGG; experiment: thioflavin T fluorescence; conditions: 100 mM KCl; 10 mM sodium cacodylate, pH 7.4; 4 µM DNA, 1 µM dye; background without DNA 1154
# [27] = tested on: mp1 (DNA, single strand) GGCTCCGGCTCCGGCTCCGG; experiment: thioflavin T fluorescence; conditions: 100 mM KCl; 10 mM sodium cacodylate, pH 7.4; 4 µM DNA, 1 µM dye; background without DNA 1154
# [28] = tested on: hmg1 (DNA, G4) GGGCGGCAGGGACAGGGGCAACTTCGGG; experiment: thioflavin T fluorescence; conditions: 100 mM KCl; 10 mM sodium cacodylate, pH 7.4; 4 µM DNA, 1 µM dye; background without DNA 1154
# [29] = tested on: gstA (DNA, G4) GGGCTGGGTGGCGGCCGCTGGTTGGGCGGG; experiment: thioflavin T fluorescence; conditions: 100 mM KCl; 10 mM sodium cacodylate, pH 7.4; 4 µM DNA, 1 µM dye; background without DNA 1154
# [30] = tested on: lysF (DNA, G4) GGGACGCGGGGGGCGGCATCGGGAGCGGG; experiment: thioflavin T fluorescence; conditions: 100 mM KCl; 10 mM sodium cacodylate, pH 7.4; 4 µM DNA, 1 µM dye; background without DNA 1154
# [31] = tested on: dppV (DNA, G4) GGGACGGCGTTGGGGGGGGGAAGGG; experiment: thioflavin T fluorescence; conditions: 100 mM KCl; 10 mM sodium cacodylate, pH 7.4; 4 µM DNA, 1 µM dye; background without DNA 1154
# [32] = tested on: zrfC (DNA, G4) GGGTTGGGCTGGTCGACATGTGGGCCCGGG; experiment: thioflavin T fluorescence; conditions: 100 mM KCl; 10 mM sodium cacodylate, pH 7.4; 4 µM DNA, 1 µM dye; background without DNA 1154
# [33] = tested on: laeA (DNA, G4) GGGATGTGGGACAGGGATTTGGG; experiment: thioflavin T fluorescence; conditions: 100 mM KCl; 10 mM sodium cacodylate, pH 7.4; 4 µM DNA, 1 µM dye; background without DNA 1154
# [34] = tested on: arp2 (DNA, G4) GGGGAGGGGACCCTTGCATGGAGGGGGGG; experiment: thioflavin T fluorescence; conditions: 100 mM KCl; 10 mM sodium cacodylate, pH 7.4; 4 µM DNA, 1 µM dye; background without DNA 1154
# [35] = tested on: ags1 (DNA, G4) GGGCTTGAGGGGAACTGGGAGGAGCGGG; experiment: thioflavin T fluorescence; conditions: 100 mM KCl; 10 mM sodium cacodylate, pH 7.4; 4 µM DNA, 1 µM dye; background without DNA 1154
# [36] = tested on: pes1 (DNA, G4) GGGAGCAAGGGGAAATCGCTGAGGGTGGG; experiment: thioflavin T fluorescence; conditions: 100 mM KCl; 10 mM sodium cacodylate, pH 7.4; 4 µM DNA, 1 µM dye; background without DNA 1154
smiles,measurement,setting,value
C[n+]1cc(NC(=O)c2ccc3ccc4ccc(C(=O)Nc5cc6ccccc6[n+](C)c5)nc4c3n2)cc2ccccc21,K,[1],32.7 ± 3.3 µM
same,K,[2],32.5 ± 1.8 µM
Cc1ccc2c(c1)sc(-c1ccc(N(C)C)cc1)[n+]2C,Fluorescence,[3],"62,347 ± 4 a.u."
same,Fluorescence,[4],"64,599 ± 9 a.u."
same,Fluorescence,[5],7173 ± 6 a.u.
same,Fluorescence,[6],"38,112 ± 15 a.u."
same,Fluorescence,[7],"71,126 ± 17 a.u."
same,Fluorescence,[8],"69,030 ± 18 a.u."
same,Fluorescence,[9],"37,691 ± 7 a.u."
same,Fluorescence,[10],"50,100 ± 17 a.u."
same,Fluorescence,[11],"66,613 ± 9 a.u."
same,Fluorescence,[12],"105,384 ± 10 a.u."
same,Fluorescence,[13],"134,267 ± 16 a.u."
same,Fluorescence,[14],"26,023 ± 6 a.u."
same,Fluorescence,[15],"28,763 ± 5 a.u."
same,Fluorescence,[16],"100,859 ± 19 a.u."
same,Fluorescence,[17],"87,449 ± 40 a.u."
same,Fluorescence,[18],8808 ± 6 a.u.
same,Fluorescence,[19],"62,145 ± 13 a.u."
same,Fluorescence,[20],"71,548 ± 13 a.u."
same,Fluorescence,[21],"34,409 ± 10 a.u."
same,Fluorescence,[22],"126,709 ± 54 a.u."
same,Fluorescence,[23],"56,161 ± 21 a.u."
same,Fluorescence,[24],"72,302 ± 9 a.u."
same,Fluorescence,[25],"73,174 ± 7 a.u."
same,Fluorescence,[26],"149,474 ± 14 a.u."
same,Fluorescence,[27],9852 ± 22 a.u.
same,Fluorescence,[28],"148,303 ± 33 a.u."
same,Fluorescence,[29],"56,709 ± 4 a.u."
same,Fluorescence,[30],"86,442 ± 9 a.u."
same,Fluorescence,[31],"47,933 ± 12 a.u."
same,Fluorescence,[32],"81,452 ± 19 a.u."
same,Fluorescence,[33],"50,899 ± 9 a.u."
same,Fluorescence,[34],"82,140 ± 54 a.u."
same,Fluorescence,[35],"67,230 ± 34 a.u."
same,Fluorescence,[36],"129,161 ± 40 a.u."
